Results: patent US20240158370A1, “CK1 alpha AND DUAL CK1 alpha / GSPT1 DEGRADING COMPOUNDS” (Innovo Therapeutics, Inc., priority 2022, published 2024)

Columns and labels:
[1] = target: T1, CK1α (Homo sapiens, UniProt P48729+Q96SW2); assay: HiBiT degradation assay, CK1α, Procedure A; type: cell-based
T1 construct: CSNK1A1-HiBit KI HEK293(LgBit) Cells; host or cells: HEK293(LgBit) knock-in cells
Method: (§1) Compounds were spotted onto Cornin 384-Well, Cell Culture-Treated, Flat-Bottom, Low Flange Microplate (Fisher Scientific, Catalog #07-201-013) using a Tecan D300e digital dispenser. Ten-point dose response curves spanning from 10 μM to 0.005 μM with a 0.1% DMSO tolerance were used.
(§2) Cells were dissociated from tissue 182 cm^2 Tissue Culture Flask (CellTreat Catalog #229351) by washing the cells with PBS (Fisher Scientific Catalog #BP3994) followed by dissociation with Trypsin-EDTA (0.25%) (Thermo Scientific Catalog #25200056). Trysin was neutralized and cells were resuspended with DMEM+10% FBS. Cells were centrifuged for 5 minutes at 1200 RPMs. Cell culture media was aspirated off and cells were resuspended with DMEM+10% FBS. Cell density was determined using a Denovix CellDrop BF cell counter. Cell density was adjusted to 1×10^6 cells/ml. 40 μl of cells was added to compound treated tissue culture plates and incubated for six hours at 37° C. After six hours, cell culture plates were removed from tissue culture incubator and cooled to room temperature. 40 μl of Nano-GloHiBiT Lytic Detection Reagent (Promega, Catalog #N3040) was added to each well. Plates were placed on an orbital shaker (600 rpm) for 20 minutes. Luminescence was measured using an Envsion plate reader (Perkin Elmer). DC50 curves and Ymin were generated using a 4-parameter curve fit with GraphPad Prism software (Prism Corporation).
(§3) Results from the HiBiT assay (DC50 (nM) and Ymin (% remaining)) are shown below. All CK1α data was generated according to Procedure A. GSPT1 data for Examples 1-600, 603-620 and 703-705 was generated according to Procedure A. GSPT1 data for Examples 601, 621-702 and 706-735 was generated according to Procedure B.

[2] = target: GSPT1 (Homo sapiens, UniProt P15170+Q96SW2); assay: HiBiT degradation assay, GSPT1, Procedure A; type: cell-based; set-up: HiBit-GSPT1 KI HEK293(LgBit) Cells; host or cells: HEK293(LgBit) knock-in cells
Method: as §1, §2, §3

Chain of GSPT1 (P15170 whole entry): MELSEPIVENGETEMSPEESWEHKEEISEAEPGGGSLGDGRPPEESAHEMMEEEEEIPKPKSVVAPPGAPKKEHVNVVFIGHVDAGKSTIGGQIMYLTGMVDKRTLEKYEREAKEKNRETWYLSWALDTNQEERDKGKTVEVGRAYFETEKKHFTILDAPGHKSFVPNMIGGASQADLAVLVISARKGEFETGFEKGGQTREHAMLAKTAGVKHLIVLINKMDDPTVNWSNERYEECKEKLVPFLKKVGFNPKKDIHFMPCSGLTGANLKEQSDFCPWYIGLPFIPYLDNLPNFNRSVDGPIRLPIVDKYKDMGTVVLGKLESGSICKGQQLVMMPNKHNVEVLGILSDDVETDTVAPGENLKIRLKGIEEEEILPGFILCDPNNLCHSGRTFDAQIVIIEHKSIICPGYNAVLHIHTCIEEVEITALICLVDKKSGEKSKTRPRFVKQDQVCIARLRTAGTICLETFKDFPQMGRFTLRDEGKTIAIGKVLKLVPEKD
Chain of GSPT1 (Q96SW2 whole entry): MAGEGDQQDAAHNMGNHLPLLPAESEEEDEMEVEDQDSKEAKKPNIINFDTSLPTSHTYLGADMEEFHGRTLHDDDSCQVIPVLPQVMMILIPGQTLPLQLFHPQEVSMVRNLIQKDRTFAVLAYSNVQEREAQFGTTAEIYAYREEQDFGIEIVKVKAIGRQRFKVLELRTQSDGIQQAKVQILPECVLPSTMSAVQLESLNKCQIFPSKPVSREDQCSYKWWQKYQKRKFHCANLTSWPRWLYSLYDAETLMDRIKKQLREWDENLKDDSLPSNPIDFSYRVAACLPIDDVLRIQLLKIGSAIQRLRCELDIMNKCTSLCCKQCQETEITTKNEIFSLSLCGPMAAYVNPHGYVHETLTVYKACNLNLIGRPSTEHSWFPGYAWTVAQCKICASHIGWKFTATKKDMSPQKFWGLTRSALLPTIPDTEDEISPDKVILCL
Chain of GSPT1 (Q16531 whole entry partner): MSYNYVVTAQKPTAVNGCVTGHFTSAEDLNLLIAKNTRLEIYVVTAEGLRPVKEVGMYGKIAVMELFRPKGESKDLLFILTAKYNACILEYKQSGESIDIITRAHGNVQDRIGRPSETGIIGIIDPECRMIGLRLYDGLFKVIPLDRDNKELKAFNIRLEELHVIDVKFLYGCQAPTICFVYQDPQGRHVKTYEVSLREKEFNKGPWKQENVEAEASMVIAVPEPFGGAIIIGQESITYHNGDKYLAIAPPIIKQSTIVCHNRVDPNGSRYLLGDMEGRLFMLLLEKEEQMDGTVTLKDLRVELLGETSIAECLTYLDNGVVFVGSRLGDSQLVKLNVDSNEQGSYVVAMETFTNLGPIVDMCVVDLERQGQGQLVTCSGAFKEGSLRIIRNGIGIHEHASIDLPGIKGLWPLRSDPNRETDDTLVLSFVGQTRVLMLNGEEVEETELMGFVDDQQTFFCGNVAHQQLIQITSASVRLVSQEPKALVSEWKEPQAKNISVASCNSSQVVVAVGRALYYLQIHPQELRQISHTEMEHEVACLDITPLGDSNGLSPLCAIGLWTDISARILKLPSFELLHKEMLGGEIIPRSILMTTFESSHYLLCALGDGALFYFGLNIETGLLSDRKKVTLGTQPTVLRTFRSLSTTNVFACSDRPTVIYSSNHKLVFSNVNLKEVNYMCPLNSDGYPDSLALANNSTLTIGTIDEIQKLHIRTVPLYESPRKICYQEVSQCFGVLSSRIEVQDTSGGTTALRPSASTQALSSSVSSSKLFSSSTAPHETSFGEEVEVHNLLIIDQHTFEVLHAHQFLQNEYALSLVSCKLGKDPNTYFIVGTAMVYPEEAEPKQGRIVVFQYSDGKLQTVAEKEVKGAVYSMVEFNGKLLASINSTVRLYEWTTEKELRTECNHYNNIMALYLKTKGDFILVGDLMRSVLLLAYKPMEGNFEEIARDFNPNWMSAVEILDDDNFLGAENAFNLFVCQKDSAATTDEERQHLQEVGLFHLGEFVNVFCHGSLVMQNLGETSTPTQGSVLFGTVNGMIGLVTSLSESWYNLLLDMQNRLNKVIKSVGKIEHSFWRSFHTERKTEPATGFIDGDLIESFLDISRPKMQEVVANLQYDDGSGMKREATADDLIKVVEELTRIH
T1 sequence (P48729 whole entry): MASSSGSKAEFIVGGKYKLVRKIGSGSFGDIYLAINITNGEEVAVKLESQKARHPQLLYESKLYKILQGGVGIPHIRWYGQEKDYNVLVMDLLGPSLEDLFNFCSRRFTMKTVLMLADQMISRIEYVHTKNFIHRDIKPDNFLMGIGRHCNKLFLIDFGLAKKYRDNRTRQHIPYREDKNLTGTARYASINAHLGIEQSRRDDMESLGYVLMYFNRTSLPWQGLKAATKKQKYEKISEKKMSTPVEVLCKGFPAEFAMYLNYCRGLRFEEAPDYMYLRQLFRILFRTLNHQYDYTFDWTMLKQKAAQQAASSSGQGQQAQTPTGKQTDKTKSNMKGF
T1 sequence (Q96SW2 whole entry): as the sequence (Q96SW2 whole entry) above
T1 sequence (Q16531 whole entry partner): as the sequence (Q16531 whole entry partner) above

CK1α Ymin ([1]; six hours incubation) | DC50 ([1]; six hours incubation) | DC50 ([2]; six hours incubation) | GSPT1 Ymin ([2]; six hours incubation) | CK1α Ymin ([1]; six hours) | DC50 ([1]; six hours) | DC50 ([2]; six hours) | GSPT1 Ymin ([2]; six hours) | SMILES
D (D = >10- 25% remaining) | < 25 nM | ≥ 25 nM | F (F = >75-100% remaining) | – | – | – | – | CN1N=CC(c2ccc3c(c2)CN(C2CCC(=O)NC2=O)C3=O)C1c1cnn(C2CC2)c1 (stereo not drawn) [Example 376]
– | – | – | – | D (D = >10- 25% remaining) | < 25 nM | ≥ 25 nM | F (F = >75-100% remaining) | Cn1cnc(-c2ccc3c(c2)CN(C2CCC(=O)NC2=O)C3=O)c1-c1cccc(C#N)n1 (stereo not drawn) [Example 399]
E (E = >25-75% remaining) | ≥ 25 nM | ≥ 25 nM | F (F = >75-100% remaining) | – | – | – | – | Cn1ncc(-c2ccc3c(c2)CN(C2CCC(=O)NC2=O)C3=O)c1-c1cc(F)ccc1Cl (stereo not drawn) [Example 120]
– | – | – | – | C (C = 0-10% remaining) | < 25 nM | ≥ 25 nM | F (F = >75-100% remaining) | Cn1c(C2CCOCC2)nc(-c2ccc3c(c2)CN(C2CCC(=O)NC2=O)C3=O)c1-c1cccnc1 (stereo not drawn) [Example 420, 3-(5-(1-methyl-5-(pyridin-3-yl)-2-(tetrahydro-2H-pyran-4-yl)-1H-imidazol-4-yl)-1-oxoisoindolin-2-yl)piperidine-2,6-dione]
C (C = 0-10% remaining) | < 25 nM | < 25 nM | E (E = >25-75% remaining) | – | – | – | – | Cc1ccc(-c2c(-c3ccc4c(c3)CN(C3CCC(=O)NC3=O)C4=O)ncn2C)c(Cl)c1 (stereo not drawn) [Example 198]
– | – | – | – | D (D = >10- 25% remaining) | < 25 nM | ≥ 25 nM | F (F = >75-100% remaining) | Cn1cc(-c2ccc3c(c2)CN(C2CCC(=O)NC2=O)C3=O)nc1C1CCC(F)(F)CC1 (stereo not drawn) [Example 545, 3-(5-(2-(4,4-difluorocyclohexyl)-1-methyl-1H-imidazol-4-yl)-1-oxoisoindolin-2-yl)piperidine-2,6-dione]
E (E = >25-75% remaining) | < 25 nM | ≥ 25 nM | F (F = >75-100% remaining) | – | – | – | – | Cc1ccccc1-c1c(-c2ccc3c(c2)CN(C2CCC(=O)NC2=O)C3=O)cnn1C (stereo not drawn) [Example 74]
D (D = >10- 25% remaining) | < 25 nM | < 25 nM | E (E = >25-75% remaining) | – | – | – | – | Cc1ccc(-c2c(-c3ccc4c(c3)CN(C3CCC(=O)NC3=O)C4=O)ncn2C)cc1F (stereo not drawn) [Example 240]
– | – | – | – | D (D = >10- 25% remaining) | < 25 nM | < 25 nM | F (F = >75-100% remaining) | COc1ccc2cc(-c3c(-c4ccc5c(c4)CN(C4CCC(=O)NC4=O)C5=O)ncn3C)ccc2c1 (stereo not drawn) [Example 446]
– | – | – | – | F (F = >75-100% remaining) | ≥ 25 nM | ≥ 25 nM | F (F = >75-100% remaining) | O=C1CCC(N2Cc3cc(-c4cn(C(F)F)nc4-c4cncnc4)ccc3C2=O)C(=O)N1 (stereo not drawn) [Example 536, 3-(5-(1-(difluoromethyl)-3-(pyrimidin-5-yl)-1H-pyrazol-4-yl)-1-oxoisoindolin-2-yl)piperidine-2,6-dione]
– | – | – | – | E (E = >25-75% remaining) | ≥ 25 nM | ≥ 25 nM | F (F = >75-100% remaining) | CN1CCN(S(=O)(=O)c2ccc(-c3c(-c4ccc5c(c4)CN(C4CCC(=O)NC4=O)C5=O)ncn3C)cc2)CC1 (stereo not drawn) [Example 449]
– | – | – | – | E (E = >25-75% remaining) | < 25 nM | ≥ 25 nM | – | CN1CCN(c2cccc(-c3c(-c4ccc5c(c4)CN(C4CCC(=O)NC4=O)C5=O)ncn3C)c2)CC1 (stereo not drawn) [Example 408]
E (E = >25-75% remaining) | < 25 nM | ≥ 25 nM | F (F = >75-100% remaining) | – | – | – | – | Cn1ncc(-c2ccc3c(c2)CN(C2CCC(=O)NC2=O)C3=O)c1-c1ccc(-c2ccccc2)cc1 (stereo not drawn) [Example 144]
– | – | – | – | E (E = >25-75% remaining) | ≥ 25 nM | ≥ 25 nM | F (F = >75-100% remaining) | Cn1ncc(-c2ccc3c(c2)CN(C2CCC(=O)NC2=O)C3=O)c1-c1ccc2nccnc2c1 (stereo not drawn) [Example 462]
C (C = 0-10% remaining) | < 25 nM | < 25 nM | F (F = >75-100% remaining) | – | – | – | – | Cn1cnc(-c2ccc3c(c2)CN(C2CCC(=O)NC2=O)C3=O)c1-c1ccc(N2CCOCC2)cc1 (stereo not drawn) [Example 353]
– | – | – | – | E (E = >25-75% remaining) | < 25 nM | ≥ 25 nM | F (F = >75-100% remaining) | Cc1oncc1-c1c(-c2ccc3c(c2)CN(C2CCC(=O)NC2=O)C3=O)cnn1C (stereo not drawn) [Example 452]
C (C = 0-10% remaining) | < 25 nM | ≥ 25 nM | F (F = >75-100% remaining) | – | – | – | – | CN1CCN(C(=O)c2cccc(-c3c(-c4ccc5c(c4)CN(C4CCC(=O)NC4=O)C5=O)ncn3C)c2)CC1 (stereo not drawn) [Example 357]
D (D = >10- 25% remaining) | < 25 nM | ≥ 25 nM | F (F = >75-100% remaining) | – | – | – | – | Cn1ncc(-c2ccc3c(c2)CN(C2CCC(=O)NC2=O)C3=O)c1-c1ccc(COc2ccccc2)cc1 (stereo not drawn) [Example 112]
D (D = >10- 25% remaining) | < 25 nM | ≥ 25 nM | F (F = >75-100% remaining) | – | – | – | – | CC(C)Cc1ccc(-c2c(-c3ccc4c(c3)CN(C3CCC(=O)NC3=O)C4=O)ncn2C)cc1 (stereo not drawn) [Example 265]
– | – | – | – | D (D = >10- 25% remaining) | < 25 nM | ≥ 25 nM | F (F = >75-100% remaining) | Cn1c(C2CC2)nc(-c2ccc3c(c2)CN(C2CCC(=O)NC2=O)C3=O)c1-c1cnc(C2CC2)nc1 (stereo not drawn) [Example 548, 3-(5-(2-cyclopropyl-5-(2-cyclopropylpyrimidin-5-yl)-1-methyl-1H-imidazol-4-yl)-1-oxoisoindolin-2-yl)piperidine-2,6-dione]
E (E = >25-75% remaining) | < 25 nM | ≥ 25 nM | F (F = >75-100% remaining) | – | – | – | – | CC(C)c1ccc(-c2c(-c3ccc4c(c3)CN(C3CCC(=O)NC3=O)C4=O)cnn2C)cc1 (stereo not drawn) [Example 84]
E (E = >25-75% remaining) | < 25 nM | ≥ 25 nM | F (F = >75-100% remaining) | – | – | – | – | Cn1cnc(-c2ccc3c(c2)CN(C2CCC(=O)NC2=O)C3=O)c1-c1ccsc1Cl (stereo not drawn) [Example 348]
– | – | – | – | C (C = 0-10% remaining) | < 25 nM | ≥ 25 nM | F (F = >75-100% remaining) | Cc1cc(-c2nc(-c3ccc4c(c3)CN(C3CCC(=O)NC3=O)C4=O)cn2C)ccc1F (stereo not drawn) [Example 563]
– | – | – | – | D (D = >10- 25% remaining) | < 25 nM | < 25 nM | F (F = >75-100% remaining) | CCn1ncc(-c2ccc3c(c2)CN(C2CCC(=O)NC2=O)C3=O)c1-c1ccccc1 (stereo not drawn) [Example 429, 3-(5-(1-ethyl-5-phenyl-1H-pyrazol-4-yl)-1-oxoisoindolin-2-yl)piperidine-2,6-dione]
E (E = >25-75% remaining) | ≥ 25 nM | < 25 nM | E (E = >25-75% remaining) | – | – | – | – | CN(C)C(=O)c1cccc(-c2c(-c3ccc4c(c3)CN(C3CCC(=O)NC3=O)C4=O)cnn2C)c1 (stereo not drawn) [Example 140]
